Like-named read-outs stand apart in the source and are kept apart here. Where a SMILES comes first, the peptide text is derived from it. Bridges are numbered along the chain shown (N, C = ends). Where no end group is shown, it is not given here.
Experiments:
H. pylori J99 lpxE/F [1] = tested on: H. pylori J99 lpxE/F
H. pylori J99 lpxR [2] = tested on: H. pylori J99 lpxR
H. pylori J99 Wild Type [3] = tested on: H. pylori J99 Wild Type
H. pylori J99 lpxE [4] = tested on: H. pylori J99 lpxE
H. pylori J99 lpxF [5] = tested on: H. pylori J99 lpxF
H. pylori X47 lpxE/F = format: cell-based, Helicobacter pylori; conditions: Polymyxin B E-Test strips on TSA with 5% blood, average of three experiments
H. pylori B128 Wild Type = format: cell-based, Helicobacter pylori; conditions: Polymyxin B E-Test strips on TSA with 5% blood, average of three experiments
H. pylori X47 lpxE = format: cell-based, Helicobacter pylori; conditions: Polymyxin B E-Test strips on TSA with 5% blood, average of three experiments
H. pylori J99 lpxR [6] = format: cell-based, Helicobacter pylori; conditions: Polymyxin B E-Test strips on TSA with 5% blood, average of three experiments
[7] = tested on: H. pylori J99 lpxF, lpxF+; format: cell-based, Helicobacter pylori; conditions: Polymyxin B E-Test strips on TSA with 5% blood, average of three experiments
H. pylori X47 lpxF = format: cell-based, Helicobacter pylori; conditions: Polymyxin B E-Test strips on TSA with 5% blood, average of three experiments
H. pylori J99 lpxF [8] = format: cell-based, Helicobacter pylori
H. pylori J99 lpxE/F [9] = format: cell-based, Helicobacter pylori
H. pylori J99 lpxE [10] = format: cell-based, Helicobacter pylori
H. pylori X47 Wild Type = format: cell-based, Helicobacter pylori; conditions: Polymyxin B E-Test strips on TSA with 5% blood, average of three experiments
H. pylori J99 Wild Type [11] = format: cell-based, Helicobacter pylori; conditions: Polymyxin B E-Test strips on TSA with 5% blood, average of three experiments
[12] = tested on: H. pylori B128 lpxE, lpxE+; format: cell-based, Helicobacter pylori; conditions: Polymyxin B E-Test strips on TSA with 5% blood, average of three experiments
[13] = tested on: H. pylori wild type strains; conditions: cited from earlier work
Method: Resistance to CAMPs is of great importance to all mucosal pathogens. This is especially true for H. pylori whose only known reservoir is the human gastric mucosal surface. H. pylori is highly resistant to the CAMP polymyxin B (PMB) with the minimal inhibitory concentration (MIC) of wild type strains ranging from 250–1000 µg/ml peptide. […] MICs were determined for all strains using PMB Etest strips. H. pylori wild type strain J9 ...

H. pylori B128 lpxE = format: cell-based, Helicobacter pylori; conditions: Polymyxin B E-Test strips on TSA with 5% blood, average of three experiments
[14] = tested on: H. pylori X47 lpxF, lpxF+; format: cell-based, Helicobacter pylori; conditions: Polymyxin B E-Test strips on TSA with 5% blood, average of three experiments
H. pylori B128 lpxF = format: cell-based, Helicobacter pylori; conditions: Polymyxin B E-Test strips on TSA with 5% blood, average of three experiments
H. pylori B128 lpxE/F = format: cell-based, Helicobacter pylori; conditions: Polymyxin B E-Test strips on TSA with 5% blood, average of three experiments

For “GIGDPVTCLKSGAICHPVFCPRRYKQIGTCGLPGTKCCKKP (disulfide 8-37, 15-30, 20-38 (inferred)) [HBD2]”, which “Minimal Inhibitory Concentration (MIC)” value (H. pylori J99 lpxE/F [1]; J99 lpxE/F, 48 h) is on record?
The value was 5.0 ± 1.0 µg/mL.

And the “Minimal Inhibitory Concentration (MIC)” value (H. pylori J99 lpxR [2]; J99 lpxR, 48 h)?
Its value is greater than 25 µg/mL.

What about the “Minimal Inhibitory Concentration (MIC)” value (H. pylori J99 Wild Type [3]; J99 Wild Type, 48 h) of the same compound?
Its value is greater than 25 µg/mL.

What about the “Minimal Inhibitory Concentration (MIC)” value (H. pylori J99 lpxE [4]; J99 lpxE, 48 h) of the same compound?
The value was 23 ± 3 µg/mL.

What about the “Minimal Inhibitory Concentration (MIC)” value (H. pylori J99 lpxF [5]; J99 lpxF, 48 h) of the same compound?
The value was 12 ± 1 µg/mL.

With `CC[C@H](C)[C@@H]1NC(=O)[C@@H]2CSSC[C@@H]3NC(=O)[C@H](Cc4ccccc4)NC(=O)[C@H](C)NC(=O)[C@H](Cc4c[nH]c5ccccc45)NC(=O)[C@H](CC(C)C)NC(=O)[C@H](CCCNC(=N)N)NC(=O)CNC(=O)[C@H](CCC(N)=O)NC(=O)[C@H](Cc4ccc(O)cc4)NC(=O)[C@H]([C@@H](C)CC)NC(=O)[C@H](CSSC[C@H](NC(=O)[C@H](Cc4ccc(O)cc4)NC(=O)[C@@H](N)CSSC[C@@H](C(=O)O)NC3=O)C(=O)N[C@@H](CCCNC(=N)N)C(=O)N[C@@H]([C@@H](C)CC)C(=O)N3CCC[C@H]3C(=O)N[C@@H](C)C(=O)N2)NC(=O)[C@H]([C@@H](C)O)NC(=O)CNC(=O)[C@H](Cc2ccc(O)cc2)NC(=O)[C@H](CCCNC(=N)N)NC(=O)[C@H](CCCNC(=N)N)NC(=O)[C@H](CCC(=O)O)NC(=O)CNC(=O)[C@H](C)NC1=O` [HNP2] (H-CYCRIPACIAGERRYGTCIYQGRLWAFCC-OH; disulfide 1-29, 3-18, 8-28 (inferred); N-terminus and C-terminus assumed) as the compound, how does the “Minimal Inhibitory Concentration (MIC)” value (H. pylori J99 lpxE/F [1]; J99 lpxE/F, 48 h) read?
Its value is greater than 25 µg/mL.

And the “Minimal Inhibitory Concentration (MIC)” value (H. pylori J99 lpxR [2]; J99 lpxR, 48 h)?
Its value is greater than 25 µg/mL.

And the “Minimal Inhibitory Concentration (MIC)” value (H. pylori J99 Wild Type [3]; J99 Wild Type, 48 h)?
The value was greater than 25 µg/mL.

What about the “Minimal Inhibitory Concentration (MIC)” value (H. pylori J99 lpxE [4]; J99 lpxE, 48 h) of the same compound?
The value was greater than 25 µg/mL.

What about the “Minimal Inhibitory Concentration (MIC)” value (H. pylori J99 lpxF [5]; J99 lpxF, 48 h) of the same compound?
Its value is greater than 25 µg/mL.

Which “Polymyxin MIC” value (H. pylori X47 lpxE/F) does the source give for polymyxin B here?
The value was 0.55 ± 0.08 µg/mL.

And the “Polymyxin MIC” value (H. pylori B128 Wild Type)?
Its value is 213.3 ± 37.0 µg/mL.

And the “Polymyxin MIC” value (H. pylori X47 lpxE)?
The value was 37.3 ± 9.2 µg/mL.

What about the “Minimal Inhibitory Concentration (MIC)” value (H. pylori J99 lpxE/F [1]) of the same compound?
Its value is 0.6 ± 0.1 µg/mL.

And the “Minimal Inhibitory Concentration (MIC)” value (H. pylori J99 lpxR [2])?
The value was greater than 250 µg/mL.

What about the “Polymyxin MIC” value (H. pylori J99 lpxR [6]) of the same compound?
The value was 512.0 ± 0.0 µg/mL.

What about the “Polymyxin MIC” value (H. pylori J99 lpxR [6]; listed as PMB) of the same compound?
Its value is 512 ± 0.0 µg/mL.

And the “Polymyxin MIC” value [7]?
The value was 512.0 ± 0.0 µg/mL.

What about the “Minimal Inhibitory Concentration (MIC)” value (H. pylori J99 Wild Type [3]) of the same compound?
Its value is greater than 250 µg/mL.

And the “Polymyxin MIC” value (H. pylori X47 lpxF)?
Its value is 2.3 ± 0.6 µg/mL.

And the “fold decrease in resistance (increase in sensitivity) to PMB” value (H. pylori J99 lpxF [8]; J99 lpxF mutant versus wild type J99, Etest MICs)?
The value was 360 fold.

What about the “Polymyxin MIC” value (H. pylori J99 lpxF [8]; J99 lpxF, Polymyxin B E-Test strips on TSA with 5% blood, average of three experiments) of the same compound?
Its value is 1.3 ± 0.3 µg/mL.

And the “fold decrease in resistance (increase in sensitivity) to PMB” value (H. pylori J99 lpxE/F [9]; J99 double lpxE/F mutant versus wild type J99, Etest MICs)?
The value was 1020 fold.

And the “Polymyxin MIC” value (H. pylori J99 lpxE/F [9]; J99 lpxE/F, Polymyxin B E-Test strips on TSA with 5% blood, average of three experiments)?
The value was 0.46 ± 0.03 µg/mL.

And the “fold decrease in resistance (increase in sensitivity) to PMB” value (H. pylori J99 lpxE [10]; J99 lpxE mutant versus wild type J99, Etest MICs)?
The value was 16 fold.

What about the “Polymyxin MIC” value (H. pylori J99 lpxE [10]; J99 lpxE, Polymyxin B E-Test strips on TSA with 5% blood, average of three experiments) of the same compound?
The value was 29.3 ± 4.6 µg/mL.

What about the “Polymyxin MIC” value (H. pylori X47 Wild Type) of the same compound?
Its value is 768.0 ± 0.0 µg/mL.

What about the “Polymyxin MIC” value (H. pylori J99 Wild Type [11]) of the same compound?
Its value is 469.3 ± 73.9 µg/mL.

And the “Polymyxin MIC” value [12]?
The value was 234.7 ± 37.0 µg/mL.

What about the “Minimal Inhibitory Concentration (MIC)” value [13] of the same compound?
The value was 250 to 1000 µg/mL.

And the “Polymyxin MIC” value (H. pylori B128 lpxE)?
Its value is 26.7 ± 4.6 µg/mL.

What about the “Polymyxin MIC” value [14] of the same compound?
The value was 682.7 ± 147.8 µg/mL.

And the “Minimal Inhibitory Concentration (MIC)” value (H. pylori J99 lpxE [4])?
The value was 22 ± 2 µg/mL.

What about the “Polymyxin MIC” value (H. pylori B128 lpxF) of the same compound?
Its value is 1.8 ± 0.3 µg/mL.

And the “Minimal Inhibitory Concentration (MIC)” value (H. pylori J99 lpxF [5])?
Its value is 3.8 ± 0.3 µg/mL.

What about the “Polymyxin MIC” value (H. pylori B128 lpxE/F) of the same compound?
Its value is 0.61 ± 0.04 µg/mL.

For AKKVFKRLEKLFSKIQNDK [HP2.20], which “fold decrease in resistance” value (H. pylori J99 lpxE/F [1]; J99 double lpxE/F mutant versus wild type, broth dilution MICs) is on record?
The value was no less than 60 fold.

What about the “Minimal Inhibitory Concentration (MIC)” value (H. pylori J99 lpxE/F [1]; J99 lpxE/F, 48 h) of the same compound?
Its value is 18 ± 3 µg/mL.

What about the “Minimal Inhibitory Concentration (MIC)” value (H. pylori J99 lpxR [2]; J99 lpxR, 48 h) of the same compound?
The value was greater than 1250 µg/mL.

What about the “Minimal Inhibitory Concentration (MIC)” value (H. pylori J99 Wild Type [3]; J99 Wild Type, 48 h) of the same compound?
Its value is greater than 1250 µg/mL.

And the “Minimal Inhibitory Concentration (MIC)” value (H. pylori J99 lpxE [4]; J99 lpxE, 48 h)?
Its value is 583 ± 29 µg/mL.

And the “Minimal Inhibitory Concentration (MIC)” value (H. pylori J99 lpxF [5]; J99 lpxF, 48 h)?
The value was 60 ± 0 µg/mL.

Which “Minimal Inhibitory Concentration (MIC)” value (H. pylori J99 lpxE/F [1]; J99 lpxE/F, 48 h) does the source give for “AKRHHGYKRKFH-NH2 (C-terminus assumed) [P113]” here?
The value was 141 ± 14 µg/mL.

And the “Minimal Inhibitory Concentration (MIC)” value (H. pylori J99 lpxR [2]; J99 lpxR, 48 h)?
Its value is greater than 400 µg/mL.

And the “Minimal Inhibitory Concentration (MIC)” value (H. pylori J99 Wild Type [3]; J99 Wild Type, 48 h)?
The value was greater than 400 µg/mL.

What about the “Minimal Inhibitory Concentration (MIC)” value (H. pylori J99 lpxE [4]; J99 lpxE, 48 h) of the same compound?
Its value is 341 ± 14 µg/mL.

What about the “Minimal Inhibitory Concentration (MIC)” value (H. pylori J99 lpxF [5]; J99 lpxF, 48 h) of the same compound?
Its value is 178 ± 3 µg/mL.

Which results are given for `CC[C@H](C)[C@H](NC(=O)[C@H](CCCCN)NC(=O)[C@H](CCC(=O)O)NC(=O)[C@H](CCCCN)NC(=O)[C@H](CO)NC(=O)[C@H](CCCCN)NC(=O)[C@H](CCCNC(=N)N)NC(=O)[C@H](Cc1ccccc1)NC(=O)[C@H](Cc1ccccc1)NC(=O)[C@H](CC(=O)O)NC(=O)CNC(=O)[C@H](CC(C)C)NC(=O)[C@@H](N)CC(C)C)C(=O)NCC(=O)N[C@@H](CCCCN)C(=O)N[C@@H](CCC(=O)O)C(=O)N[C@@H](Cc1ccccc1)C(=O)N[C@@H](CCCCN)C(=O)N[C@@H](CCCNC(=N)N)C(=O)N[C@H](C(=O)N[C@H](C(=O)N[C@@H](CCC(N)=O)C(=O)N[C@@H](CCCNC(=N)N)C(=O)N[C@H](C(=O)N[C@@H](CCCCN)C(=O)N[C@@H](CC(=O)O)C(=O)N[C@@H](Cc1ccccc1)C(=O)N[C@@H](CC(C)C)C(=O)N[C@@H](CCCNC(=N)N)C(=O)N[C@@H](CC(N)=O)C(=O)N[C@@H](CC(C)C)C(=O)N[C@H](C(=O)N1CCC[C@H]1C(=O)N[C@@H](CCCNC(=N)N)C(=O)N[C@H](C(=O)N[C@@H](CCC(=O)O)C(=O)N[C@@H](CO)C(=O)O)[C@@H](C)O)C(C)C)[C@@H](C)CC)C(C)C)[C@@H](C)CC` [LL37]?
Minimal Inhibitory Concentration (MIC) (H. pylori J99 lpxE/F [1]; J99 lpxE/F, 48 h): 11 ± 1 µg/mL; Minimal Inhibitory Concentration (MIC) (H. pylori J99 lpxR [2]; J99 lpxR, 48 h): 41 ± 6 µg/mL; Minimal Inhibitory Concentration (MIC) (H. pylori J99 Wild Type [3]; J99 Wild Type, 48 h): 40 ± 5 µg/mL; Minimal Inhibitory Concentration (MIC) (H. pylori J99 lpxE [4]; J99 lpxE, 48 h): 40 ± 0 µg/mL; Minimal Inhibitory Concentration (MIC) (H. pylori J99 lpxF [5]; J99 lpxF, 48 h): 19 ± 2 µg/mL
